Reference: article PMC12463120, “Phenylalanine‐Based DNA‐Encoded Chemical Libraries for the Discovery of Potent and Selective Small Organic Ligands Against Markers of Cancer and Immune Cells” (Advanced Science, 2025)
“Also recorded” adds a separate entry of the source.

Key:
[1] = tested on: various unrelated proteins, including TAAs and serological proteins; assay: ELISA against multiple proteins (specificity); format: binding
Description: 2.13 ACP3 colorimetric enzymatic assay
Grenier 384 transparent, flat-bottom well plates were used. Each test compound was measured in triplicate. 16 µL of a solution of the compound (3µM, 5% DMSO in PBS for small molecules or PBS only for DNA-conjugates, pH 7.4) was loaded into the first well row. A serial 1:2 (on DNA) or 1:3 (off DNA) dilution in DMSO/PBS (5/95, off DNA) or only PBS (on DNA) was performed in a total volume per well of 8 µL. Human recombinant ACP3 (16 µL solution, 2.5 nM in PBS, pH 7.4) was added to each well.
After 10 min of incubation, 16 µL of a solution of para-nitrophenyl phosphate (pNPP, substrate, 5 mM in PBS, pH 7.4) was added. The plate was left to develop in the dark for 16 hours. Enzymatic reaction on the substrate (phosphate group removal by ACP3) was assessed by measuring absorption at 405 vs 620 nm on a Spectra Max Paradigm multimode plate reader ([…]).
2.14 Surface plasmon resonance (SPR)
SPR measurements were performed on a Biacore X100. […]
The protein (100 μL/well, 170 nM) was incubated for 2 h at 4 °C on a StreptaWell plate (transparent 96 - well plate, Roche #11645692001). […] The absorbance was measured at 450 nm (reference level, 620–650 nm) with a Spark multimode microplate reader (Tecan Life Sciences). […]

NK-92 cells = assay: In vitro interferon-gamma release assay on NK-92 cells; format: cell-based, human; settings: serial dilution from 7.5 µM, 24 h
Description: plate (20 µL/well). Test compounds (300 nM, in 175 µL of FACS buffer) were added to the wells containing the beads. Plates were further incubated in the dark at room temperature for 1 hour and subsequently centrifuged at 2’500 rpm at 4 °C for 3 min. Beads were washed and resuspended in FACS buffer (200 µL). Data were acquired halting the measurement at 10’000 events on a Cytoflex S flow cytometer (Beckman Coulter) and analyzed using the FlowJo software v10 (BD Biosciences).
2.19 In vitro interferon-gamma release assay
Compounds 26 and 30 were tested for their ability to induce interferon-gamma (IFN-γ) release upon incubation with NK-cells. NK-92 cells were initially starved for 4 h in plain RPMI medium. […] After 24 h, cell-free supernatants were collected, and the concentration of IFN-γ was measured using the ELISA MAXTM Set Human IFN-γ kit (BioLegend). […]
The sections were blocked with 20% FCS (Invitrogen) and 3% BSA in PBS (pH 7.4) for 30 min and washed three times with PBS (pH 7.4). […] Images were recorded on a CR-35 Bio scanner and processed with the AIDA image analysis […]
2.21 Quantitative in vivo biodistribution studies […]
Figure S39. […] After 24 hours of incubation, IFN-γ levels in the culture supernatant were measured by ELISA. […]

CC(C)Oc1ccc(-c2cccc(C[C@H](NC(=O)c3ccccc3-c3ccc(C(F)(F)F)cc3)C(=O)N[C@@H](CCCCNC(=S)Nc3ccc4c(c3)C(=O)OC43c4ccc(O)cc4Oc4cc(O)ccc43)C(=O)O)c2)c(F)c1 [compound 30]
selectivity by ELISA against multiple proteins [1]: high selectivity over various unrelated proteins
IFN-γ release by NK-92 cells (NK-92 cells): did not induce IFN-γ release; also recorded: not found to induce the release
